Source: patent publication US5001149A, “Azadirachtin derivative insecticides” (NPI, priority 1987, dated 1991)
Values after ≈ are worked out from the molar mass of the structure shown. “Also recorded” adds a separate entry of the source. Read-outs that look alike come from different tables or passages of the source.

Tests used:
[1] = test system: first-instar Heliothis virescens larvae; assay: Mortality and growth inhibition in first-instar Heliothis virescens larvae fed in an artificial diet; type: in vivo; details: for EC50 (concentration causing 50% growth inhibition): first-instar larvae, artificial diet, in parentheses 95% confidence limits; for LC50 (concentration causing 50% mortality): heliothis virescens, in vivo; for LC50 (concentration causing 50% mortality) / LC50: po; for LC50: Heliothis virescens, read-out: LC50 (concentration causing 50% mortality)
Text: Mortality and growth inhibition in first-instar Heliothis
virescens larvae fed azadirachtin and eight derivatives in an
^b LC50 values are the concentrations (ppm) causing 50%
^c EC50 values are the concentrations (PPM) causing 50% growth
^d Numbers in parentheses are the 95% confidence limits determined
using the methods of Litchfield and Wilcoxon, J. Pharmacol. Exp. Ther.

[2] = test system: fifth-instar Heliothis virescens larvae; assay: Pupal and adult development of fifth-instar larvae injected orally with non-irradiated compounds; type: in vivo; details: for mortality at 0.001 mg: Heliothis virescens, light or radiation study, po, read-out: % Mortality Prior to Adult Stage
Experimental: (§1) Individual larvae were injected per os on the first day of the fifth instar with 1.0 μg of one of the either irradiated or non-irradiated compounds dissolved in 1.0 μl of 75% aqueous ethanol.
Successful and unsuccessful pupal and adult development of fifthinstar
Heliothis Virescens larvae injected orally with 1.0 microgram of either
azadirachtin, 3deacetylazadirachtin, 22,23dihydroazadirachtin, or
2',3',22,23tetrahydroazadirachtin.

[3] = test system: fifth-instar Heliothis virescens larvae; assay: Relative activity of UV-irradiated compounds in inhibiting pupal development (pupation); type: in vivo; details: for Relative activity, inhibiting pupal development: relative to non-irradiated
Experimental: (§2) Azadirachtin and its derivatives listed above (1.0 mg/ml absolute ethanol) were placed individually in capped quartz NMR tubes (5×180 mm) and were irradiated with two UV germicidal lights (GE, G30T8, 200-280 nm, 30 W) 1.8 m from the source at room temperature for up to 400 h. The controls were identical samples protected from exposure to UV radiation by wrapping with aluminum foil. At selected time intervals, aliquots from both the controls (non-irradiated) and irradiated samples were removed for high-performance liquid chromatography (HPLC) analysis (vide infra) and bioassay.
as §1
(§3) Relative activity of azadirachtin, 3deacetylazadirachtin,
22,23dihydroazadirachtin, and 2',3',22,23tetrahydroazadirachtin, all of
which had been exposed for 15, 30, 90, 200, and 400 hours to UV radiation
inhibiting the pupal development of fifthinstar Heliothis virescens
(§4) larvae. Relative activity is defined as the percentage of larvae injected

[4] = test system: fifth-instar Heliothis virescens larvae; assay: Relative activity of UV-irradiated compounds in inhibiting adult development; type: in vivo; details: for Relative activity, inhibiting adult development: relative to non-irradiated
Experimental: as §2, §1, §3
22,23dihydroazadirachtin, 2',3',22,23tetrahydroazadirachtin, all of which
had been exposed for 15, 30, 90, 200, and 400 hours to UV radiation, in
inhibiting the adult development of fifthinstar Heliothis virescens
as §4
relative to the percentage injected with its nonirradiated counterpart

[5] = Stability to UV irradiation by reversed phase HPLC; type: physicochemical; details: for half-life / degraded at 90 h: absolute ethanol
Experimental: Stability of Azadirachtin derivatives was determined as follows:
as §2
Analytical reversed phase HPLC was performed on a phenyl (5 μm) column run isocratically with acetonitrile-water (3:7) (Yamasaki et al.) Peaks were detected at 214 nm. The irradiated samples were compared with their corresponding non-UV-irradiated controls by measuring the height of the peak eluting at the appropriate Rt for each irradiated compound relative to each one's non-irradiated control. Results are expressed as the percent of the initial sample concentration remaining relative to the control. Each time point was done in at least triplicate fashion.

[6] = test system: insects; assay: Antifeedant function; details: in vivo
[7] = test system: insects; details: Kubo & Klocke and other literature; cited from earlier work
[8] = test system: insect; details: Kubo & Klocke; cited from earlier work
[9] = 1.0 microgram per os, fifth instar, non-irradiated
[10] = 1.0 microgram per os, non-irradiated

| Compound | EC50 (concentration causing 50% growth inhibition) [1] | LC50 (concentration causing 50% mortality) [1] | LC50 [1] | Number Unsuccessful Larvae-Pupae [2, 9] | Number Unsuccessful Pupae-Adult [2, 9] | inhibition of pupation, in words [2, 10] | mortality at 0.001 mg [2] | Relative activity, inhibiting pupal development ([3]; 15 h UV) | Relative activity, inhibiting pupal development ([3]; 30 h UV) | activity retained, in words ([3]; 90 h UV) | Relative activity, inhibiting pupal development ([3]; 90 h UV) | ability to inhibit pupation, in words ([3]; 200 h UV) | Relative activity, inhibiting pupal development ([3]; 200 h UV) | ability to inhibit pupation, in words ([3]; 400 h UV) | Relative activity, inhibiting pupal development ([3]; 400 h UV) | Relative activity, inhibiting adult development ([4]; 15 h UV) | Relative activity, inhibiting adult development ([4]; 30 h UV) | Relative activity, inhibiting adult development ([4]; 90 h UV) | Relative activity, inhibiting adult development ([4]; 200 h UV) | Relative activity, inhibiting adult development ([4]; 400 h UV) | also measured |
| --- | --- | --- | --- | --- | --- | --- | --- | --- | --- | --- | --- | --- | --- | --- | --- | --- | --- | --- | --- | --- | --- |
| 13,20-O, O-dicarbomethoxy-22,23-dihydroazadirachtin [Compound 6] | 29.0 (20.3-41.5) ppm | 90.0 (37.8-214.5) ppm |  |  |  |  |  |  |  |  |  |  |  |  |  |  |  |  |  |  |  |
| 13-O-methylazadirachtin [Compound 5] | 5.00 (1.54-16.25) ppm | 25.0 (12.2-51.4) ppm |  |  |  |  |  |  |  |  |  |  |  |  |  |  |  |  |  |  |  |
| 13O-acetylazadirachtin [Compound 4] | 0.18 (0.08-0.40) ppm | 0.95 (0.59-1.54) ppm |  |  |  |  |  |  |  |  |  |  |  |  |  |  |  |  |  |  |  |
| C/C=C(\C)C(=O)O[C@H]1C[C@@H](OC(C)=O)[C@@]2(C(=O)OC)CO[C@H]3[C@@H](O)[C@@](C)([C@]45O[C@@]4(C)[C@H]4C[C@@H]5O[C@@H]5OC=C[C@@]54O)[C@H]4[C@]1(CO[C@]4(O)C(=O)OC)[C@@H]32 [Compound 1, azadirachtin] | 0.07 (0.05-0.10) ppm |  | 0.8 µg/mL (≈ 1.11 µM) | 5 | 0 | equally effective in inhibiting pupation | 98.7% | 98.6% | 98.9% | retained full activity | 85.7% | did decline | 74.2% | An even greater decline | 60.0% | 101.3% | 101.3% | 97.3% | 89.7% | 81.1% | Adults Deformed, % [2, 9]: 0.7%; Adults, % [2, 9]: 1.3%; Number Adults [2, 9]: 2; Number Adults Deformed [2, 9]: 1; Number Pupae [2, 9]: 10; Pupae, % [2, 9]: 6.7%; Unsuccessful Larvae-Pupae, % [2, 9]: 3.4%; Unsuccessful Pupae-Adult, % [2, 9]: 0%; activity retained ([3]; 400 h UV): approximately 50%; ability to inhibit pupation, in words ([3]; up to 90 h UV): not appreciably reduced; ability to inhibit larvae from reaching the adult stage, in words ([4]; 200 h UV): declined slightly; degradation, in words ([5]; 400 h UV): none of the three compounds remained in their original state; half-life ([5]; UV 200-280 nm, room temperature, read-out: T1/2 of UV degradation (converted)): 25 h; UV stability, in words ([5]; UV exposure up to 400 h): UV-labile; reaction order of UV degradation, in words ([5]; UV irradiation): degraded in a first-order reaction; degraded at 90 h ([5]; 90 h UV, read-out: compound degraded): > 80%; antifeedant function, in words [6]: function as antifeedants; ecdysis inhibitory activity, in words [7]: potent ecdysis inhibitory activity; also recorded: the same ecdysis inhibitory activity |
| C/C=C(\C)C(=O)OC1CC(O)C2(C(=O)OC)COC3C2C12COC(O)(C(=O)OC)C2C(C)(C12OC1(C)C1CC2OC2OC=CC21O)C3O (stereo not shown) [Compound 2, 3-deacetylazadirachtin] |  |  | 0.37 µg/mL (≈ 0.545 µM) | 13 | 4 | less effective | 94.1% | 115.2% | 135.0% | retained full activity | 139.5% | did decline | 86.8% | An even greater decline | 41.0% | 103.2% | 106.3% | 106.3% | 96.0% | 72.3% | activity retained ([3]; 400 h UV): approximately 50%; ability to inhibit pupation, in words ([3]; up to 90 h UV): not appreciably reduced; ability to inhibit larvae from reaching the adult stage, in words ([4]; 200 h UV): remained substantially unchanged until 400 h of irradiation; degradation, in words [5]: none of the three compounds remained in their original state; reaction order of UV degradation, in words [5]: degraded in a first-order reaction; degraded at 90 h ([5]; uv): > 80%; half-life ([5]; uv): 25 h |
| C/C=C(\C)C(=O)OC1CC(OC(C)=O)C2(C(=O)OC)COC3C2C12COC(O)(C(=O)OC)C2C(C)(C12OC1(C)C1CC2OC2OCCC21O)C3O (stereo not shown) [Compound 3, 22,23-dihydroazadirachtin] |  |  | 0.47 µg/mL (≈ 0.65 µM) | 13 | 4 | less effective | 96.6% | 113.1% | 104.6% | retained full activity | 100.0% | did decline | 72.7% | An even greater decline | 49.1% | 103.5% | 100.1% | 103.5% | 69.0% | 74.5% | activity retained ([3]; 400 h UV): approximately 50%; ability to inhibit pupation, in words ([3]; up to 90 h UV): not appreciably reduced; ability to inhibit larvae from reaching the adult stage, in words ([4]; 200 h UV): more so; degradation, in words [5]: none of the three compounds remained in their original state; reaction order of UV degradation, in words [5]: degraded in a first-order reaction; degraded at 90 h ([5]; uv): > 80%; half-life ([5]; uv): 25 h |
| COC(=O)C1(O)OCC23C(O)CC(OC(C)=O)C4(C(=O)OC)COC(C42)C(O)C(C)(C24OC2(C)C2CC4OC4OCCC42O)C13 (stereo not shown) [Compound 7, 1-detigloyl-22,23dihydroazadirachtin] |  |  | 2.4 µg/mL (≈ 3.75 µM) |  |  |  |  |  |  |  |  |  |  |  |  |  |  |  |  |  |  |
| CCC(C)C(=O)OC1CC(OC(C)=O)C2(C(=O)OC)COC3C2C12COC(O)(C(=O)OC)C2C(C)(C12OC1(C)C1CC2OC2OCCC21O)C3O (stereo not shown) [Compound 8, 2',3',22,23-tetrahydroazadirachtin] |  |  | 0.3 µg/mL (≈ 0.414 µM) | 6 | 1 | equally effective in inhibiting pupation | 100% | 99.4% | 103.7% |  | 99.7% | most active in inhibiting pupation | 108.0% | its activity declined after 400 h of exposure, it was still more active than the other test compounds | 69.1% | 100.0% | 100.0% | 100.0% | 100.0% | 100.0% | growth inhibitory and lethal activity, in words ([1]; relative to azadirachtin): retaining full activity; also recorded: fully active; Number Pupae [2, 9]: 10; loss in activity with degradation, in words ([3]; 400 h UV): some loss in activity; ability to inhibit larvae from reaching the adult stage, in words ([4]; 400 h UV): fully active after 400 h of irradiation |
| COC(=O)C1(O)OCC23C(OC(=O)C(C)(O)C(C)O)CC(OC(C)=O)C4(C(=O)OC)COC(C42)C(O)C(C)(C24OC2(C)C2CC4OC4OCCC42O)C13 (stereo not shown) [Compound 9, 2',3'-dihydroxy-2',3'22,23-tetrahydroazadirachtin] |  |  | 42 µg/mL (≈ 55.5 µM) |  |  |  |  |  |  |  |  |  |  |  |  |  |  |  |  |  |  |
| C/C=C(\C)C(=O)O[C@@H]1C[C@H](O)[C@]23CO[C@H](C(=O)OC)[C@H]2[C@](C)([C@]24O[C@@]2(C)[C@H]2C[C@@H]4O[C@@H]4OC=C[C@@]42O)[C@H](O)[C@@H]2OC[C@@]1(C(=O)OC)[C@H]23 [deacetylazadirachtinol] |  |  |  |  |  |  |  |  |  |  |  |  |  |  |  |  |  |  |  |  | ecdysis inhibitory activity, in words [7]: the same ecdysis inhibitory activity; fold less active than azadirachtin as insect growth inhibitor [8]: about 2.5 fold |
